Measurements from US8138343B2, “Crystalline polymorph of 7-ethyl-10-hydroxycamptothecin” (ScinoPharm Taiwan Ltd., priority 2007, dated 2012).

Experiment: Storage stability of crystalline SN38
Format: physicochemical
Conditions: 25° C. and 70% relative humidity for one year

- stability on storage: stable
SMILES: CCc1c2c(nc3ccc(O)cc13)-c1cc3c(c(=O)n1C2)COC(=O)C3(O)CC (stereo not shown) [crystalline SN38, 7-ethyl-10-hydroxycamptothecin]
